Measured values published in ChEMBL document CHEMBL1140066, “3,4-Dihydro-2H-1,4-benzoxazine derivatives combining thrombin inhibitory and glycoprotein IIb/IIIa receptor antagonistic activity as a novel class of antithrombotic compounds with dual function” (J Med Chem, 2008).
Active and inactive are the calls of the source. The rule behind the calls is not given here.

What was measured:
Coagulation factor X = Coagulation factor X (Homo sapiens, UniProt P00742); assay: Inhibition of factor 10a
[1] = target: Integrin alpha-IIb/beta-3 (Homo sapiens, UniProt P05106+P08514); assay: Inhibition of fibrinogen binding to human platelet GPIIb/IIIa receptor
Prothrombin = Prothrombin (Homo sapiens, UniProt P00734)
[2] = Selectivity for thrombin over trypsin
[3] = Selectivity for thrombin over factor 10a
Platelet [4] = assay: Inhibition of ADP-induced platelet aggregation in human platelet rich plasma at 50 uM; type: functional
Platelet [5] = assay: Inhibition of ADP-induced platelet aggregation in human platelet rich plasma; type: functional, cell-free

Sequence of Integrin alpha-IIb/beta-3 (P05106 27-788 limits assumed): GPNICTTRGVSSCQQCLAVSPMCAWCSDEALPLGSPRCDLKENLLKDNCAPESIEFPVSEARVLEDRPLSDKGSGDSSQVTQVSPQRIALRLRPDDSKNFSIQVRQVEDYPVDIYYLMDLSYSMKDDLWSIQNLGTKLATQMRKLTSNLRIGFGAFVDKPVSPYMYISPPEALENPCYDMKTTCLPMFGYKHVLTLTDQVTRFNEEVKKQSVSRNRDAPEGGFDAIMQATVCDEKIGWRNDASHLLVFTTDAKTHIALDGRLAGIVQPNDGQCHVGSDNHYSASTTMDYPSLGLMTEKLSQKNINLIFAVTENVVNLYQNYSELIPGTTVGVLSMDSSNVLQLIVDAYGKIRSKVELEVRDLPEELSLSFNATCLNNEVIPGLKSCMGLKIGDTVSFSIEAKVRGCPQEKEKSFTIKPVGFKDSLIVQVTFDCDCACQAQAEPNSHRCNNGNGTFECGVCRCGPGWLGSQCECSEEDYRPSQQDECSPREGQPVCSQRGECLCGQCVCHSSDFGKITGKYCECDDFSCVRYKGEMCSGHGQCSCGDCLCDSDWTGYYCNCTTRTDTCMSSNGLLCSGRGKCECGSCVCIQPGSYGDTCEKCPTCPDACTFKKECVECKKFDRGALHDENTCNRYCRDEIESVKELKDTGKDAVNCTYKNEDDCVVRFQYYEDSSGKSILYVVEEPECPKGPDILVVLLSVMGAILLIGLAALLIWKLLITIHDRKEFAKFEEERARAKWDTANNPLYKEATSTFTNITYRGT
Sequence of Integrin alpha-IIb/beta-3 (P08514 32-887 limits assumed): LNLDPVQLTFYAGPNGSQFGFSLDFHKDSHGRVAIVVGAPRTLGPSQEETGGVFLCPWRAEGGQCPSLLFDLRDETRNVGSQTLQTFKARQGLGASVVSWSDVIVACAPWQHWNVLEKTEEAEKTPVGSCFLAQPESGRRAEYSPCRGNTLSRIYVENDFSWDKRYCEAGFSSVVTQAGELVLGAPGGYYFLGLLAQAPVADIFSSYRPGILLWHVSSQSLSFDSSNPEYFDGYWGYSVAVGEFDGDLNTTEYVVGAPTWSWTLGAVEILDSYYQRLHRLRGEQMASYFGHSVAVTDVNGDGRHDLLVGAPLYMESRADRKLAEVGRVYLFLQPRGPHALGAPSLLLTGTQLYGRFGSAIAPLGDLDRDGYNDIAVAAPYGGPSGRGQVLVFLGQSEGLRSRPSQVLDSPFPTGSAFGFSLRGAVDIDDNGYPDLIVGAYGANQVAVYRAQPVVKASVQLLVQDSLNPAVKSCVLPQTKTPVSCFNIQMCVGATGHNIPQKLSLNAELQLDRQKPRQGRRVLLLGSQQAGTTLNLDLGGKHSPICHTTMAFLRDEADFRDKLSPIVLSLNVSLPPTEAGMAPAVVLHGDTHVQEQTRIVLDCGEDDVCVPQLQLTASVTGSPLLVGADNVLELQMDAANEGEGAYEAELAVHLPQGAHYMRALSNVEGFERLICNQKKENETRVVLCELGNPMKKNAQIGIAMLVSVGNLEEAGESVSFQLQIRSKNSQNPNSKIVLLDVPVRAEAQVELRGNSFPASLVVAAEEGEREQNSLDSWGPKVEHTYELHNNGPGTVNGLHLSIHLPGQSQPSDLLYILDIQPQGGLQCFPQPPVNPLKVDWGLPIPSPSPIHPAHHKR
Sequence of Integrin alpha-IIb/beta-3 (P08514 891-1039 limits assumed): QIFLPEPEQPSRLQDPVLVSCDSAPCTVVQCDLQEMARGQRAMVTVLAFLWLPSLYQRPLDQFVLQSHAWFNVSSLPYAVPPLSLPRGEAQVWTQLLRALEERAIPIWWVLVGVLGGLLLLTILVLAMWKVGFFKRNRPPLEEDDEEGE
Sequence of Coagulation factor X (P00742 41-179 limits assumed): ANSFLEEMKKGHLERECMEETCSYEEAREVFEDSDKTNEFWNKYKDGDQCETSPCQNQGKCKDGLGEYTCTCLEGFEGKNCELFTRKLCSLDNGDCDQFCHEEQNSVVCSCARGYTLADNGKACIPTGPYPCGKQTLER
Sequence of Coagulation factor X (P00742 235-488 limits assumed): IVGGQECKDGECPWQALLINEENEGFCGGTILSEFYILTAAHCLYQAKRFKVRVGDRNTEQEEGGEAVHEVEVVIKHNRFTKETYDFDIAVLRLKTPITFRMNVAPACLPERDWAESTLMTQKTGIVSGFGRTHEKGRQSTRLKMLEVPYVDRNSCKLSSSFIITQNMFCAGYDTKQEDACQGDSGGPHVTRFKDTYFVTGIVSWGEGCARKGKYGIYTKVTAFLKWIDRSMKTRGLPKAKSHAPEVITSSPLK

Structure (SMILES) | Ki (Coagulation factor X) | IC50 [1] | Ki (Prothrombin) | Selectivity ratio [2] | Selectivity ratio [3] | inhibition at 50 µM (Platelet [4]) | Activity (Platelet [4]) | IC50 (Platelet [5])
CN1CC(C)(COc2ccc(C(=N)N)cc2)Oc2ccc(N(Cc3ccccc3)C(=O)C(=O)O)cc21 (stereo unspecified) | 31.7 µM | > 100 µM | – | – | – | – | – | –
CCOC(=O)CN(C(=O)c1ccccc1)c1ccc2c(c1)OC(C)(COc1ccc(C(=N)N)cc1)CN2C (stereo unspecified) | 9.59 µM | 1.78 µM | 0.156 µM | 12 | 47 | 21% | – | –
CN1C(=O)C(OCc2ccc(C(=N)N)cc2)Oc2cc(C(=O)N(CC(=O)O)c3ccccc3)ccc21 (stereo unspecified) | 49.6 µM | > 100 µM | 1.76 µM | 9.4 | 28 | 24% | – | –
CN1C(=O)C(OCc2ccc(C(=N)N)cc2)Oc2cc(C(=O)NCCC(=O)O)ccc21 (stereo unspecified) | 112 µM | 15.2 µM | 118 µM | 0.2 | 1 | 23% | – | –
CN1CC(C)(COc2ccc(C(=N)N)cc2)Oc2cc(NC(=O)c3ccccc3)ccc21 (stereo unspecified) | 12.1 µM | 2.85 µM | 5 µM | 0.3 | 2.4 | 21% | – | –
CCOC(=O)C(=O)N(Cc1ccccc1)c1ccc2c(c1)OC(C)(COc1ccc(C(=N)N)cc1)CN2C (stereo unspecified) | 112 µM | 2 µM | – | – | – | 21% | – | –
CCOC(=O)CN(C(=O)c1ccc2c(c1)OC(OCc1ccc(C(=N)N)cc1)C(=O)N2C)c1ccccc1 (stereo unspecified) | 43.1 µM | 28.4 µM | 3.98 µM | 4.6 | 11 | 10% | – | –
CN1C(=O)C(OCc2ccc(C(=N)N)cc2)Oc2cc(C(=O)N[C@@H](CC(=O)O)c3ccccc3)ccc21 (stereo partly specified) | > 200 µM | 1.64 µM | 14.9 µM | – | – | – | – | –
CCOC(=O)C(C(=O)Nc1ccc2c(c1)OC(OCc1ccc(C(=N)N)cc1)C(=O)N2C)c1ccccc1 (stereo unspecified) | 50.3 µM | 2.44 µM | 9.89 µM | 1.5 | 5.1 | 23% | – | –
CCOC(=O)CN(Cc1ccccc1)c1ccc2c(c1)OC(C)(COc1ccc(C(=N)N)cc1)CN2C (stereo unspecified) | 2.67 µM | 1.45 µM | 0.38 µM | 4.5 | 7 | 19% | – | –
CN1CC(C)(COc2ccc(C(=N)N)cc2)Oc2cc(N(Cc3ccccc3)C(=O)C(=O)O)ccc21 (stereo unspecified) | 16.6 µM | > 100 µM | – | – | – | 26% | – | –
CCOC(=O)CCC(=O)N(Cc1ccccn1)c1ccc2c(c1)OC(C)(COc1ccc(C(=N)N)cc1)CN2C (stereo unspecified) | 11.8 µM | 11.3 µM | 0.025 µM | 56 | 472 | 15% | – | –
CCOC(=O)CCC(=O)N(Cc1ccccc1)c1ccc2c(c1)N(C)CC(C)(COc1ccc(C(=N)N)cc1)O2 (stereo unspecified) | 27.7 µM | > 100 µM | – | – | – | – | inactive | –
CN1CC(C)(COc2ccc(C(=N)N)cc2)Oc2cc(N(Cc3ccccc3)C(=O)CCC(=O)O)ccc21 (stereo unspecified) | 29.7 µM | > 100 µM | – | – | – | 14% | – | –
CN1C(=O)C(OCc2ccc(C(=N)N)cc2)Oc2cc(C(=O)Nc3ccccc3)ccc21 (stereo unspecified) | 31.6 µM | 12.1 µM | 24.2 µM | 0.7 | 1.3 | 19% | – | –
CCOC(=O)CN(Cc1ccccc1)c1ccc2c(c1)N(C)CC(C)(COc1ccc(C(=N)N)cc1)O2 (stereo unspecified) | 11.9 µM | 0.73 µM | – | – | – | 13% | – | –
CN1CC(C)(COc2ccc(C(=N)N)cc2)Oc2cc(NC(=O)C(Cc3ccccc3)C(=O)O)ccc21 (stereo unspecified) | – | – | 5.5 µM | – | – | – | – | 24.9 µM
CCOC(=O)C(Cc1ccccc1)C(=O)Nc1ccc2c(c1)N(C)CC(C)(COc1ccc(C(=N)N)cc1)O2 (stereo unspecified) | 29.5 µM | 36.5 µM | 4.93 µM | 0.6 | 6 | 8% | – | –
CCOC(=O)CCC(=O)N(Cc1ccccc1)c1ccc2c(c1)OC(C)(COc1ccc(C(=N)N)cc1)CN2C (stereo unspecified) | 18 µM | 29.3 µM | 0.06 µM | 19 | 300 | – | inactive | –
COC(=O)C(Cc1ccccc1)C(=O)Nc1ccc2c(c1)OC(C)(COc1ccc(C(=N)N)cc1)CN2C (stereo unspecified) | 35.4 µM | 9.11 µM | 2.86 µM | 1.7 | 12 | 21% | – | –
CN1CC(C)(COc2ccc(C(=N)N)cc2)Oc2cc(NC(=O)CCC(=O)O)ccc21 (stereo unspecified) | 33.8 µM | 1.69 µM | 5.16 µM | 0.3 | 6.6 | – | – | 36.7 µM
CCOC(=O)C[C@H](NC(=O)c1ccc2c(c1)OC(OCc1ccc(C(=N)N)cc1)C(=O)N2C)c1ccccc1 (stereo partly specified) | 54.6 µM | 24.6 µM | – | – | – | – | – | –
CCOC(=O)C(=O)N(Cc1ccccc1)c1ccc2c(c1)N(C)CC(C)(COc1ccc(C(=N)N)cc1)O2 (stereo unspecified) | 16 µM | 1.2 µM | – | – | – | 24% | – | –
CCOC(=O)CCC(=O)Nc1ccc2c(c1)OC(C)(COc1ccc(C(=N)N)cc1)CN2C (stereo unspecified) | 74.7 µM | 14 µM | 16.9 µM | 0.4 | 4.4 | 15% | – | –
